Experimental findings from the kinase profiling compilation of Christmann-Franck et al. (2016) are described below.

What all share (conditions): compound 10.0 µM
Experiment [1] has as its system ABL1 (human), P00519 [M351T].
Experiment [2] deals with ABL1 (human), P00519 [Y253F].
Another experiment has as its target ABL2 (human) (UniProt P42684).
The target in a further experiment is EGFR (human) (UniProt P00533).
Experiment [3] has as its system EGFR (human), P00533 [746-750 del].
Experiment [4] relates to EGFR (human), P00533 [G719S].
For experiment [5], the system named is EGFR (human), P00533 [T790M].
The target in another experiment is FRK (human) (UniProt P42685).
A further experiment addresses LCK (human) (UniProt P06239).
The target in the next experiment is NTRK3 (human) (UniProt Q16288).
Experiment [6] relates to PIK3CA (human), P42336 [C420R].
The subject of experiment [7] is PIK3CA (human), P42336 [M1043I].
Another experiment has as its target PIK3CD (human) (UniProt O00329).
The target of another experiment is RPS6KA5 KD2 (human) (UniProt O75582).
Chain of RPS6KA5 KD2 (human) (O75582 whole entry, looked up): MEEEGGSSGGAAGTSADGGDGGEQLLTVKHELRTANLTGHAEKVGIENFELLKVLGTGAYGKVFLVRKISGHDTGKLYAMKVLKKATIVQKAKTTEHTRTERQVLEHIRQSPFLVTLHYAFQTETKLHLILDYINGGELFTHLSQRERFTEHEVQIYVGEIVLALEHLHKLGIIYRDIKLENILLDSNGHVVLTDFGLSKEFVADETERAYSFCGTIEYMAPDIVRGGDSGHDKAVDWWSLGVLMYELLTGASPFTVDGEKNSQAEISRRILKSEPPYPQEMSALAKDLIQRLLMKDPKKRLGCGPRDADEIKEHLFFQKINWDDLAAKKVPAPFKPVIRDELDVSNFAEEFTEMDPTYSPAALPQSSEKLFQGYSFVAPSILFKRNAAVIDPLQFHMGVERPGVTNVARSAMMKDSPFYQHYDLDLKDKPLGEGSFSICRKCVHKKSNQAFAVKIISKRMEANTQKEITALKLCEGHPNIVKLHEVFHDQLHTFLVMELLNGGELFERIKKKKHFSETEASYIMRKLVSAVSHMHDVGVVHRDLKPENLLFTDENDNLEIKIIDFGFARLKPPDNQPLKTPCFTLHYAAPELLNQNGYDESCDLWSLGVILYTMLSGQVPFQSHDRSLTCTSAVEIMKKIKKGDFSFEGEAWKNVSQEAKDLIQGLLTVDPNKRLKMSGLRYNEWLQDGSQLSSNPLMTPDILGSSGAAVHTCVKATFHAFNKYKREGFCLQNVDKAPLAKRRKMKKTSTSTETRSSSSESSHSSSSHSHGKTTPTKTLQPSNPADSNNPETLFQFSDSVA

Chain of FRK (human) (P42685 whole entry, looked up): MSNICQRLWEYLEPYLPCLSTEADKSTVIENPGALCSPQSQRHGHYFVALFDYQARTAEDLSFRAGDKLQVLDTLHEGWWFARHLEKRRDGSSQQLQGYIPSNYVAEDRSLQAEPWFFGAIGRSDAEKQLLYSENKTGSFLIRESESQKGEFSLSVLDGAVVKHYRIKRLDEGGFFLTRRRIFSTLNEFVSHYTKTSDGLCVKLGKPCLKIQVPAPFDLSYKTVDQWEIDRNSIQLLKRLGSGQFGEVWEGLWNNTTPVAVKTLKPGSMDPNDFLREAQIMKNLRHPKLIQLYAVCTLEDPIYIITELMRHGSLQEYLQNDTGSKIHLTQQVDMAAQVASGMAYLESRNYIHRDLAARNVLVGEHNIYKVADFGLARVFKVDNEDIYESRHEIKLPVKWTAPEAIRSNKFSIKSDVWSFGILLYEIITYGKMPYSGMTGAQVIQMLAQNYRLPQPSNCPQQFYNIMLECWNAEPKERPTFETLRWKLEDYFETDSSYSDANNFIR
Chain of PIK3CA (human), P42336 [C420R] (P42336 whole entry C420R, looked up): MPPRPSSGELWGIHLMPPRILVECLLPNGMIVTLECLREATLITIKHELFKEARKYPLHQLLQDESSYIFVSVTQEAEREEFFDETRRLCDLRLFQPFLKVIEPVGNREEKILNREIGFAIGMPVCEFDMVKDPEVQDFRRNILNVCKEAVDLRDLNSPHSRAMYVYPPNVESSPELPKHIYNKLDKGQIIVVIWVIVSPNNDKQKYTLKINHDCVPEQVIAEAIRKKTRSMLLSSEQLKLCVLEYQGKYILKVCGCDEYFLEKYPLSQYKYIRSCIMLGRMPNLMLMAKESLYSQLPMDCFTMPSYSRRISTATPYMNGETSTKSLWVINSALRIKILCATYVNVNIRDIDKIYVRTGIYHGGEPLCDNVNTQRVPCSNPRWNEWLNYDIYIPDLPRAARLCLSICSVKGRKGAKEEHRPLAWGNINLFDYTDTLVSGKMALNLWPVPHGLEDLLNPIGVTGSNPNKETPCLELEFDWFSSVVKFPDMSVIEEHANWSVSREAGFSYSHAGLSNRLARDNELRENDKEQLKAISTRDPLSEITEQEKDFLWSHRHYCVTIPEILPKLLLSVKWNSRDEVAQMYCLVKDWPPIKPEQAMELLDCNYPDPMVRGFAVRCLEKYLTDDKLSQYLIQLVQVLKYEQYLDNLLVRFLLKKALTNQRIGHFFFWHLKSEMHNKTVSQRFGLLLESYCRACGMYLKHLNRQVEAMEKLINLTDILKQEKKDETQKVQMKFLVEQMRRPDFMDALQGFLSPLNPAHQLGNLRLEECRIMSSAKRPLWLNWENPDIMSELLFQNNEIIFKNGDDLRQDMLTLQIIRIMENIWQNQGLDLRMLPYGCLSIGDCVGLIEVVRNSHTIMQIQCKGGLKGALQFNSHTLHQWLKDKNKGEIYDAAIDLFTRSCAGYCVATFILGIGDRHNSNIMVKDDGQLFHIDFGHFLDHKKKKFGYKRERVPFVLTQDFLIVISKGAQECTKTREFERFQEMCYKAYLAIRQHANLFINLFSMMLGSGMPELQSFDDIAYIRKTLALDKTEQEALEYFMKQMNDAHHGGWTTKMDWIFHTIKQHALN
Chain of LCK (human) (P06239 whole entry, looked up): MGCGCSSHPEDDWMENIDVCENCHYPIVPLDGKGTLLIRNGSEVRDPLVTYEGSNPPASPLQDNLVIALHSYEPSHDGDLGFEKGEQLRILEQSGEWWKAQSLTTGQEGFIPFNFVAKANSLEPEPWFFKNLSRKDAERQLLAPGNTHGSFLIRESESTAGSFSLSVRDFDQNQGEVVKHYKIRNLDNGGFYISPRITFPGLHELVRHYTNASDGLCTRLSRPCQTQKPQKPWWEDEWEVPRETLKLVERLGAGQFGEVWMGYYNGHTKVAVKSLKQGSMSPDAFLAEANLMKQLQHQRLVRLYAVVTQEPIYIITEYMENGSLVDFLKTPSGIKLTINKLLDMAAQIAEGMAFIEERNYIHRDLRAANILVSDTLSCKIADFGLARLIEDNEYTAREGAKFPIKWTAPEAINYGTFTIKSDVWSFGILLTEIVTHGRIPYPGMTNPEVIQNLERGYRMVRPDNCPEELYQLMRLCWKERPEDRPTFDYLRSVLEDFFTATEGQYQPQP
Chain of PIK3CD (human) (O00329 whole entry, looked up): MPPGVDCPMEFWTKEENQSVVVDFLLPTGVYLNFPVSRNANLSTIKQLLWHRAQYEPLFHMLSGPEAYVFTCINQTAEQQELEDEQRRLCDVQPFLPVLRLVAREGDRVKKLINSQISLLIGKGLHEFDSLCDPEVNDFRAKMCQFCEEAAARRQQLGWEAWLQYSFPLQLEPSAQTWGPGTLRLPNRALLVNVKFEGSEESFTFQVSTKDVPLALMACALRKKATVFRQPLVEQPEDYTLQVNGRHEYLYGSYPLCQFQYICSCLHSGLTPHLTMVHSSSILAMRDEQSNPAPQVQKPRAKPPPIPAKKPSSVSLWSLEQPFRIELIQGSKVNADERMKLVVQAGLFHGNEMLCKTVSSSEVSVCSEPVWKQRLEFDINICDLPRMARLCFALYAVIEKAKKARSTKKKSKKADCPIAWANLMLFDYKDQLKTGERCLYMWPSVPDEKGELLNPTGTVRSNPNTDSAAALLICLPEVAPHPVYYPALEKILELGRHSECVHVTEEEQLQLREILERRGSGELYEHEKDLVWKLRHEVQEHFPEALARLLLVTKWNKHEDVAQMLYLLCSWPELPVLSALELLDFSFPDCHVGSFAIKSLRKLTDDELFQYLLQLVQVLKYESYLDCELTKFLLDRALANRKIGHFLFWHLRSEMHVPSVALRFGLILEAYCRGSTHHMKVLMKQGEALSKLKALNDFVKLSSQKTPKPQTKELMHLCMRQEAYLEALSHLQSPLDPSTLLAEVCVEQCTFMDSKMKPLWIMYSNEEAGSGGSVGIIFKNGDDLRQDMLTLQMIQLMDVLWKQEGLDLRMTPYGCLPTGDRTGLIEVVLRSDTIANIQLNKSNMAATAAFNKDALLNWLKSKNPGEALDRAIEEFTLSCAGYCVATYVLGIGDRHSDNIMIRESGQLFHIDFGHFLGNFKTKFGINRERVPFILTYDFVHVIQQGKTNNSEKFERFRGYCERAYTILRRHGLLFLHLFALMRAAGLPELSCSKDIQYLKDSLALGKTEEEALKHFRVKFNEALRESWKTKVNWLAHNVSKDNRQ
Chain of PIK3CA (human), P42336 [M1043I] (P42336 whole entry M1043I, looked up): as the sequence (P42336 whole entry C420R, looked up) above, with R420C, M1043I counted along it
Chain of NTRK3 (human) (Q16288 whole entry, looked up): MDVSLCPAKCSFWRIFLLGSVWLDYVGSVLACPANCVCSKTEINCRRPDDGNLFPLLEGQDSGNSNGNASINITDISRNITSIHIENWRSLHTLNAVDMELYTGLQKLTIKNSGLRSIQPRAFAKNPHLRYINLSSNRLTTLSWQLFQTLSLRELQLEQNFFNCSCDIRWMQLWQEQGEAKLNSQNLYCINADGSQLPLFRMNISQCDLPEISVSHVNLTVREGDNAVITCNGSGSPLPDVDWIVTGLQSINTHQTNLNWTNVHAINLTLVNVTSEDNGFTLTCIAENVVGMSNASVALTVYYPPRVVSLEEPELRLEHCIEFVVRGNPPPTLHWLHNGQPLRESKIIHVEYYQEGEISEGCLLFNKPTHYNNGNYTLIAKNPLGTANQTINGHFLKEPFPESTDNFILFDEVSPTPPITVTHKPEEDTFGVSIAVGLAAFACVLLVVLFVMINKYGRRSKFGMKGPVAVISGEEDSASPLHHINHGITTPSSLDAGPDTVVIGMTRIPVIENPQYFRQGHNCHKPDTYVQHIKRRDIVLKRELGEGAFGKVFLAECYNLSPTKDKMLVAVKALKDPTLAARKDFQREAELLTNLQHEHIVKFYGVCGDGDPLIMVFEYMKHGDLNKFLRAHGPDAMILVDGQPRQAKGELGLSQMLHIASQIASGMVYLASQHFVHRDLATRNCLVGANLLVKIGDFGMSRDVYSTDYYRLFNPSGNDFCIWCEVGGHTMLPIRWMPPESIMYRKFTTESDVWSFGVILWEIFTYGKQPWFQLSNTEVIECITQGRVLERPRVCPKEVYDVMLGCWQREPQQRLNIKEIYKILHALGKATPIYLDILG

In the case of `CNC(=O)c1cc(Oc2ccc(NC(=O)Nc3ccc(Cl)c(C(F)(F)F)c3)cc2)cc[n+]1[O-]`, the per cent of control was 21% in [1]; 30% in experiment [2]; 25% at ABL2 (human); 75% on EGFR (human); 84% in experiment [3]; 100% in experiment [4]. The per cent of control stood at 100% in experiment [5]; 1.8% at FRK (human); 2.5% at LCK (human); 0.35% on NTRK3 (human); 40% in experiment [6]; 83% in [7]. In addition, the per cent of control came out at 100% at PIK3CD (human) and 81% on RPS6KA5 KD2 (human).
